Reference: patent publication US11958880B2, “Means and methods for site-specific functionalization of polypeptides” (LUDWIG-MAXIMILIANS-UNIVERSITÄT MÜNCHEN, priority 2014, dated 2024)

Legend:
Format in all cases: biochemical
[1] = target: T1, tubulin tyrosine ligase (TTL) (Canis lupus familiaris, UniProt A0A8I3N5B1); assay: TTL reaction on GBP4 followed by tryptic digest and HPLC-MS/MS; conditions: 1 mM tyrosine derivative, 1 μM TTL, 5 μM nanobody, 37° C., 24 h
T1 construct: His-Tag (N); SUMO3 (Sumo) (N); made in house; host or cells: E. coli BL21(DE3)
T1 sequence (A0A8I3N5B1 1-377): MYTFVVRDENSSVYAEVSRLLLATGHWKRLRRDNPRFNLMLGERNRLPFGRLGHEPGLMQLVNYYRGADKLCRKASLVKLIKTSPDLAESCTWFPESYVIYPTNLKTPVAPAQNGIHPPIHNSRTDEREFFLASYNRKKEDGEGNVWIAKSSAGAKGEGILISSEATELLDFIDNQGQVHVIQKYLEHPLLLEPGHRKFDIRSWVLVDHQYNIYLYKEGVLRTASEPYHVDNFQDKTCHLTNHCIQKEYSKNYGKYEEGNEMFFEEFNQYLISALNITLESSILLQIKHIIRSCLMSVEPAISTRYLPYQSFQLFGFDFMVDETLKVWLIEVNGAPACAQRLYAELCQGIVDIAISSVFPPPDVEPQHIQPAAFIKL
Protocol: Nanobodies were tyrosinated as described in Example 8. Proteins were separated by SDS-PAGE. Protein bands of interest were excised, soaked with 100 μL 50 mM (NH4)2CO3/ACN 1:1 and incubated at 30° C. for 10 min. The supernatant was removed and the gel pieces were incubated in 50 mM (NH4)2CO3 at 30° C. for further 10 min. The two incubation steps were repeated until the pieces were colorless. Hereafter, the gel pieces were dehydrated by the addition of 25 μL ACN, the supernatant removed and the gels were dried under reduced pressure. In-gel digest was performed in a total volume of 20 μL 50 mM (NH4)2CO3 at 37° C. for 12 h using 0.05 μg Trypsin. 20 μL ACN+0.5% TFA were added, the mixture was incubated in an ultrasonic bath, the supernatant transferred to LC glass vials, the solvent was removed under reduced pressure and the residual peptides resuspended in 6 μL 95% H2O+0.1% TFA, 5% ACN+0.1% TFA solution. Peptides were separated by HPLC and analysed by MSMS experiments.
Tyrosination reactions were performed in a 50 μL solution consisting of 20 mM MES/K pH 7.0, 100 mM KCl, 10 mM MgCl2, 2.5 mM ATP, 1 mM tyrosine derivative, 1 μM TTL, 5 μM nanobody and 5 mM reduced glutathione in case of compound 3 and 5 mM DTT in case of compound 1, 2, 9 and tyrosine (6), respectively. The mixture was incubated at 37° C. for 24 h. Proteins were separated by SDS-PAGE. Protein bands of interest were excised, soaked with 100 μL 50 mM (NH4)2CO3/ACN 1:1 and incubated at 30° C. for 10 min. The supernatant was removed and the gel pieces were incubated in 50 mM (NH4)2CO3 at 30° C. for further 10 min. The two incubation steps were repeated until the pieces were colourless. Hereafter, the gel pieces were dehydrated by the addition of 25 μL ACN, the supernatant removed and the gels were dried under reduced pressure. In-gel digest was performed in a total volume of 20 μL 50 mM (NH4)2CO3 at 37° C. for 12 h using 0.05 μg trypsin (Thermo Fisher Scientific, USA). 20 μL ACN+0.5% TFA was added, the mixture incubated in an ultrasonic bath, the supernatant transferred to LC glass vials, the solvent removed under reduced pressure and the residual peptides resuspended in 6 μL 95% H2O+0.1% TFA, 5% ACN+0.1% TFA solution. Peptides were separated by HPLC and analyzed by MSMS experiments.

[2] = target: T1, tubulin tyrosine ligase (TTL); assay: TTL tyrosination of carboxyfluorescein-labeled Tub-tag peptide (CF-Tub-tag), isocratic HPLC-fluorescence; conditions: TTL:peptide 1:200, after 120 min of incubation at 37° C.
Protocol: Tyrosination reactions were performed in a 250 μL solution consisting of 20 mM MES/K pH 7.0, 100 mM KCl, 10 mM MgCl2, 2.5 mM ATP, 1 mM tyrosine derivative, 0.2 mM peptide, 1 μM TTL and 5 mM DTT in case of compound 1, 2, 4 and 5 or 5 mM reduced glutathione in case of compound 3, respectively. The mixture was incubated at 37° C. and several aliquots (25 μL) were taken within 24 h, mixed with equal volumes of H2O+0.1% TFA and subjected either to isocratic analytical HPLC equipped with a fluorescence detector (Method A) or analytical UPLC-MS analysis. Quantities of substrate and product peptides were estimated from the corresponding peak-area in the fluorescence or UV detection spectrum (Ex/Em: 495/517).
Tyrosination reactions were performed in a 250 μL solution consisting of 20 mM MES/K pH 7.0, 100 mM KCl, 10 mM MgCl2, 2.5 mM ATP, 1 mM tyrosine derivative, 0.2 mM CF-Tub-tag 13, 1 μM TTL and 5 mM DTT in case of compound 2 or 5 mM reduced glutathione in case of compound 1, respectively. The mixture was incubated at 37° C. and several aliquots (25 μL) were taken, mixed with equal volumes of H2O+0.1% TFA and subjected to isocratic analytical HPLC equipped with a fluorescence detector (Method: A=H2O+0.1% TFA, B=MeCN+0.1% TFA; 35% B, 0-15 min, 10-100% B 15-17 min, 100% B 17-22 min, 100-35% B 22-25 min and 35% B 25-30 min.). […]

[3] = target: T1, tubulin tyrosine ligase (TTL); assay: TTL-mediated incorporation of tyrosine derivative to the C-terminus of GBP4 followed by SPAAC to DBCO-biotin (SDS-PAGE/western blot); conditions: for GBP4 converted (C-terminally modified GBP4): one hour; for GBP4 conversion: three hours
Protocol: Tyrosination reactions were performed in a 150 μL solution consisting of 20 mM MES/K pH 7.0, 100 mM KCl, 10 mM MgCl2, 2.5 mM ATP, 1 mM tyrosine derivative, 0.1-1 μM TTL, 5 μM nanobody and 5 mM reduced glutathione in case of compounds containing azides or 5 mM DTT for all other derivatives, respectively. The mixture was incubated at 37° C. for 1-3 h.
Tyrosination reactions were performed as described in Example 16 using compound 3, 5 mM reduced glutathione and a ratio of 10:1 GBP4/TTL for 3 h. The reaction mixtures were rebuffered to Dulbecco's PBS pH 7.4 and incubated with 30 eq. of Sulfo-Cy5-DBCO (Jena Bioscience GmbH, Germany) or DBCO-PEG4-biotin (Jena Bioscience GmbH, Germany) at 30° C. for 4 h. Proteins were separated by SDS-PAGE. Biotinylated nanobodies were wet blotted onto a nitrocellulose membrane using a Bio-Rad Mini-Protean Tetra System (250 mA, one hour). A streptavidin peroxidase conjugate (Merck Millipore, Germany) was used for detection. Fluorescently labeled nanobodies were visualized by a Fuji FLA-5000 laser imager (634 nm excitation, LPG-filter) (Fujifilm, Japan).

N[C@@H](Cc1ccc(O)c([N+](=O)[O-])c1)C(=O)O [compound 2, 3-nitro-L-tyrosine]
C-terminal addition to GBP4 shown by HPLC-MS/MS [1]: successful C-terminal addition

N[C@@H](Cc1ccc(O)c(C=O)c1)C(=O)O [compound 1, 3-formyl-L-tyrosine]
conjugate yield [2]: 63%
C-terminal addition to GBP4 shown by HPLC-MS/MS [1]: successful C-terminal addition

[N-]=[N+]=Nc1cc(C[C@H](N)C(=O)O)ccc1O [compound 3, 3-azido-L-tyrosine]
conjugate yield [2]: 80%
C-terminal addition to GBP4 shown by HPLC-MS/MS [1]: successful C-terminal addition
GBP4 converted (C-terminally modified GBP4) ([3]; ratio 1:5 TTL/GBP4, 37° C.): 82%
GBP4 conversion ([3]; ratio 1:5 TTL/GBP4, 37° C.): 99%
GBP4 converted (C-terminally modified GBP4) ([3]; ratio 1:10 TTL/GBP4, 37° C.): 71%
GBP4 conversion ([3]; ratio 1:10 TTL/GBP4, 37° C.): 88%

N[C@@H](Cc1ccc(O)cc1)C(=O)O [compound 6, L-tyrosine, reference compound]
C-terminal addition to GBP4 shown by HPLC-MS/MS [1]: successful C-terminal addition

Nc1cc(C[C@H](N)C(=O)O)ccc1O [compound 9, 3-amino-L-tyrosine]
C-terminal addition to GBP4 shown by HPLC-MS/MS [1]: successful C-terminal addition
